Assay results reported in publication PMC6424980, “Distinct G protein-coupled receptor phosphorylation motifs modulate arrestin affinity and activation and global conformation” (Nature Communications, 2019).
Values belong to the molecule of their own block, whether it stands above or below them. Non-standard residues stand in square brackets, D forms with d. No end group written: not given here. pT = C[C@@H](OP(=O)(O)O)[C@H](N)C(=O)O; pS = N[C@@H](COP(=O)(O)O)C(=O)O

Key:
arrestin-1 = experiment: [15N,1H]TROSY NMR titration of arrestin-1 with peptide; type: binding, bovine; conditions: peptide:arrestin-1 up to 10:1
Protocol: ^2H,^15N,^13C-labeled arrestin-1 aliquots were thawed quickly under running water, transferred to 30 kDa-cutoff Vivaspin (0.5 ml, Sartorius) centrifugal spin concentrators, and concentrated to approximately 600 μM. The concentrator was immediately transferred into a beaker filled with 400 ml of NMR buffer 1 or 2 (see below) carried by a floatation device. The dialysis was performed at 4 °C overnight. On the next day the concentration was determined by UV absorbance at 280 nm (molar extinction coefficient 26,360/mol/cm). […] The dialysis was performed at 4 °C overnight, and the peptide concentration was determined by its absorbance at 205 nm (molar extinction coefficient: 54,310/mol/cm). […]
NMR measurements were performed on Bruker Avance III-HD 600 or 900 MHz spectrometer using a CTCI cryo-cooled probehead. […] Pulse lengths were calibrated for ^1H manually and for ^13C/^15N using an in-house automated procedure. pH was monitored using the position of the phosphate signal in NMR buffer 2 as an internal reference and varied by no more than 0.03 pH units during peptide titration experiments. [^15N,^1H]TROSY experiments were recorded with internal ETH pulse sequences, whereas 3D triple resonance TROSY experiments were recorded using the manufacturer’s pulse sequences. […]

arrestin-1 (F85A, F197A) = experiment: Limited trypsin digestion of arrestin-1 in presence of peptide; type: biochemical, bovine; conditions: arrestin:peptide 1:1.2, 35 °C, SDS PAGE
Text: Synthesized cDNAs of bovine arrestin-1, human arrestin-2 and human arrestin-3 were ordered from Genewiz, amplified by PCR and cloned (Supplementary Information Table 5) into the pET-15b vector (Novagen), using the Gibson Assembly protocol. The constructs contained an N-terminal hexa histidine tag linked by a linker that contained a Tobacco Etch Virus cleavage site (TEV; […]). PCR was used to introduce the monomerizing arrestin-1 mutations (F85A, F197A)[58]. Note that this mutant was employed for fluorescence anisotropy, trypsin digestion, and NMR experiments. Wild-type arrestin-2 and -3 were used for fluorescence anisotropy and trypsin digestion experiments. […] The arrestin-1 in this construct had the wild-type sequence. Note that this construct differs slightly from that previously published[59],[60] and was optimized for purification. We verified the functionality of this fusion construct using the standard centrifugal pull-down assay using phosphorylated rhodopsin in native ROS membranes.
Arrestin (60 µg) was mixed at a 1 to 1.2 molar ratio with peptide and preincubated at RT for 5 min before 1 μl of 0.15 mg/ml trypsin stock was added. The enzymatic digestion was carried out at 35 °C (20 mM Bis-Tris propane pH 7.0, 150 mM NaCl, 10 mM 2‑Mercaptoethanol and 2 mM EDTA). At certain time points (5, 15, 30, 60, 90 min), 5 μl aliquots were quenched with heat incubation in the presence of 20 μl SDS loading buffer (95 °C, 5 min) and then subjected to SDS PAGE. Bands were visualized with InstantBlue (Expedeon).

[1] = molecular target: fully phosphorylated peptide 7P of the bovine rhodopsin C-terminus (bovine); experiment: fluorescence polarisation; fluorescence anisotropy; 20 nM fluorescently labelled peptide, 11-step serial dilution of arrestin; 20 mM Bis-Tris propane pH 7.0, 150 mM NaCl, 8 mM 2-mercaptoethanol, 2% BSA, 0.02% Tween-20; RT; one-to-one binding model
[2] = molecular target: bovine arrestin-1 with the monomerizing mutations F85A, F197A (bovine, UniProt P08168 2-404, F85A | F197A); experiment: FP

Molecule: CDDEASTTVSKTETSQVAPA [0P, nonphosphorylated peptide analog of the bovine rhodopsin C-terminus with N-terminal cysteine]
- NMR chemical shift / peak changes in arrestin-1 (in words) (arrestin-1): some minor changes in peak intensity
- limited trypsin digest pattern of arrestin-1 (conformational change, C-tail displacement) (arrestin-1 (F85A, F197A)): three major bands

- Kd [1]: < 250 µM
Molecule: bovine arrestin-1 with the monomerizing mutations F85A, F197A (from UniProt P08168 2-404) (natural protein)

- Kd [2]: 94 µM
Molecule: C(fluorescein‑5‑maleimide)DDEASTTVSK[pT]ET[pS]QVAPA (also: third phosphorylation site not given here) [tri-phosphorylated peptide 3Pd of the bovine rhodopsin C-terminus]
